Legend:
[1] = Intrinsic clearance in human liver microsomes; type: ADME; conditions: read-out: CLH
CDK9/cyclin T1 = CDK9/cyclin T1 (Homo sapiens, UniProt P50750); experiment: Inhibition of CDK9/cyclin T1 (unknown origin) using 4eBP1 ULight peptide as substrate by HTRF assay; type: protein-complex assay
[2] = biological target: Cyclin-dependent kinase 1/cyclin B1 (Homo sapiens, UniProt P06493); experiment: Inhibition of CDK1/cyclin B (unknown origin) by HTRF assay; type: protein-complex assay
[3] = biological target: Cyclin-dependent kinase 2/cyclin E1 (Homo sapiens, UniProt P24941); experiment: Inhibition of CDK2/cyclin E (unknown origin) using ULight peptide as substrate by HTRF assay; type: protein-complex assay
[4] = Intrinsic clearance in rat liver microsomes; type: ADME; conditions: read-out: CLH
[5] = biological target: Cell division cycle 7-related protein kinase (Homo sapiens, UniProt O00311); experiment: Inhibition of Cdc7-mediated MCM2 phosphorylation at Ser53 in human HCT116 cells after 14 hrs by immunostaining assay; type: cell-based, HCT-116
[6] = biological target: CDC7/DBF4 (Cell division cycle 7-related protein kinase/Activator of S phase kinase) (Homo sapiens, UniProt O00311); experiment: Inhibition of Cdc7/Dbf4 (unknown origin)-mediated MCM2 phosphorylation at Ser53 by protein A amplified luminescent proximity homogeneous assay; type: protein-complex assay
Hepatocyte = experiment: Drug metabolism in rat hepatocytes assessed as GSH adduct level; type: ADME, cell-based
[7] = Volume of distribution at steady state in rat at 2 mg/kg, iv; type: ADME, organism-based; set-up: dose 2 mg/kg, route intravenous; conditions: in vivo, read-out: Vdss
[8] = Clearance in rat at 2 mg/kg, iv; type: ADME, organism-based; set-up: dose 2 mg/kg, route intravenous; conditions: in vivo
[9] = Mean residence time in rat at 2 mg/kg, iv; type: ADME, organism-based; set-up: dose 2 mg/kg, route intravenous; conditions: in vivo
Homo sapiens = species: Homo sapiens; experiment: Selectivity ratio of IC50 for CDK2/cyclin E (unknown origin) to IC50 for Cdc7/Dbf4 (unknown origin)

CDC7/DBF4 (Cell division cycle 7-related protein kinase/Activator of S phase kinase), sequence (Q9UBU7 whole entry): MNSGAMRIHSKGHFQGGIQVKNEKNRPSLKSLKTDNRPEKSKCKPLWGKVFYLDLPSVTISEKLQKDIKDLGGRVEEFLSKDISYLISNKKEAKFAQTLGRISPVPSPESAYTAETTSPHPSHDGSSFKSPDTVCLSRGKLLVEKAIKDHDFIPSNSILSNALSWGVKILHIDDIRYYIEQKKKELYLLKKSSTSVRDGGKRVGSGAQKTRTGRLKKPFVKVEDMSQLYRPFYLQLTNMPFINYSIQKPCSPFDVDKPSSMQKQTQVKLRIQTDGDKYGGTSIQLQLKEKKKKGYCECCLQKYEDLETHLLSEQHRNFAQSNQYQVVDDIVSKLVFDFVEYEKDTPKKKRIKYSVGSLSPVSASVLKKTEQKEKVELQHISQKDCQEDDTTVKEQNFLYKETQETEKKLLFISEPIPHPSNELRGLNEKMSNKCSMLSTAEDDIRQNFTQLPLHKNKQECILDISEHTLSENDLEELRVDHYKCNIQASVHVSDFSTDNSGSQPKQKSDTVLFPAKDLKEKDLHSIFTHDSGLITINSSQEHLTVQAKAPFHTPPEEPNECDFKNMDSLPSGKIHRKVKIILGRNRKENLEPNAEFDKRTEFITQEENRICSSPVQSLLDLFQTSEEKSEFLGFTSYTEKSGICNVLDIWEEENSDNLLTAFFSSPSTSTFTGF
CDC7/DBF4 (Cell division cycle 7-related protein kinase/Activator of S phase kinase), sequence (O00311 whole entry): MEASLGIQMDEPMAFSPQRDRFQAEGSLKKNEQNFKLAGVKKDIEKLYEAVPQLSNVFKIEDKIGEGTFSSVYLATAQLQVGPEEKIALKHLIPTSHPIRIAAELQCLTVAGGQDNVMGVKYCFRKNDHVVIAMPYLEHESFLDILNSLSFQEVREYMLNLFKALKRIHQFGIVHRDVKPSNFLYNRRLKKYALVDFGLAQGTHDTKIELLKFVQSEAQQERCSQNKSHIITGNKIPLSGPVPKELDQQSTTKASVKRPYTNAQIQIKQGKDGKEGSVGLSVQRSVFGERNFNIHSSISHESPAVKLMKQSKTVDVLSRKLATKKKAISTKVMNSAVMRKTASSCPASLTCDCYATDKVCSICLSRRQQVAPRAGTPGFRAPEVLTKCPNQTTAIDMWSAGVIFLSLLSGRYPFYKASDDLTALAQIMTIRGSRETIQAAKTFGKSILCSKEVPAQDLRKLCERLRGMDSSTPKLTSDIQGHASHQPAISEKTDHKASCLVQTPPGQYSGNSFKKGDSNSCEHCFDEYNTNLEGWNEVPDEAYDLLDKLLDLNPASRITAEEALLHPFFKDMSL
Cell division cycle 7-related protein kinase, sequence (O00311 whole entry): as above
Cyclin-dependent kinase 1/cyclin B1, sequence (P06493 whole entry): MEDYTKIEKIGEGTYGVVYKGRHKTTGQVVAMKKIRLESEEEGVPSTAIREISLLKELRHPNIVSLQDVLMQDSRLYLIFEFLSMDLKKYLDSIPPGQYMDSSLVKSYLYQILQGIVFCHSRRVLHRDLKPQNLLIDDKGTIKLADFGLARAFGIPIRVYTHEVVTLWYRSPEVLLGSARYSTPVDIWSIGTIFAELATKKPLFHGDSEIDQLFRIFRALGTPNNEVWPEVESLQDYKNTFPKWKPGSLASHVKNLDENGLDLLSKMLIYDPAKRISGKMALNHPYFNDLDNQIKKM
Cyclin-dependent kinase 1/cyclin B1, sequence (P14635 whole entry, further chain): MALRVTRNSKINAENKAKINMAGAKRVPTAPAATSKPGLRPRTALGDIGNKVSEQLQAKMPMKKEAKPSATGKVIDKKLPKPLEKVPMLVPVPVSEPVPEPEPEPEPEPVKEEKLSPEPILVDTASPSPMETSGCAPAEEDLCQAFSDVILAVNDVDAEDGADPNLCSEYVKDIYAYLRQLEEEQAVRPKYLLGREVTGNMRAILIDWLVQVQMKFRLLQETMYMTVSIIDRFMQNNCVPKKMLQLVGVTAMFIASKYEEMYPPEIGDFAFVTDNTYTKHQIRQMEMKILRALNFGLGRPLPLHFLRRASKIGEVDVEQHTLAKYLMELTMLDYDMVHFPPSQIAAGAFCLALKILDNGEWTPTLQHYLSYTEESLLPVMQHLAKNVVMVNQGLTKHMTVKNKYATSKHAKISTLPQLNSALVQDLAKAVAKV
CDK9/cyclin T1, sequence (O60563 whole entry): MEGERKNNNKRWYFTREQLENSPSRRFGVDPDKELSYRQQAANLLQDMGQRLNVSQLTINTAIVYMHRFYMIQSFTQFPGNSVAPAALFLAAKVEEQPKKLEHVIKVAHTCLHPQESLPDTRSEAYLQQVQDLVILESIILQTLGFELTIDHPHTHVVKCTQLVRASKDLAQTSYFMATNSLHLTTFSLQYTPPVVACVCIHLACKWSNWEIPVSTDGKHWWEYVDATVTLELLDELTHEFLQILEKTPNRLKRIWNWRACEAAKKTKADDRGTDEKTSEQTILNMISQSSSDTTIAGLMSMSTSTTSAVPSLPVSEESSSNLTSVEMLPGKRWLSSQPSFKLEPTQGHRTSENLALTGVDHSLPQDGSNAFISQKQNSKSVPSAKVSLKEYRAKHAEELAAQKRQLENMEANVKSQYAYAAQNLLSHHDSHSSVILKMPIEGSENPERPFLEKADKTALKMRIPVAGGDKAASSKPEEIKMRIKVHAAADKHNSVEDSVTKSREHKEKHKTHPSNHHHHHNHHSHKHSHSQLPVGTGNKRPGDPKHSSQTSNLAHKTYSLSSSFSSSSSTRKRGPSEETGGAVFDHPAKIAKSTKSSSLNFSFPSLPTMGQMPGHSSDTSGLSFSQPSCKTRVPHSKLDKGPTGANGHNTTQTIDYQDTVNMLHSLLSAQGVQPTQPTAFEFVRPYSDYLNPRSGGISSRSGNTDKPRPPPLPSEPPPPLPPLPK
CDK9/cyclin T1, sequence (P50750 whole entry): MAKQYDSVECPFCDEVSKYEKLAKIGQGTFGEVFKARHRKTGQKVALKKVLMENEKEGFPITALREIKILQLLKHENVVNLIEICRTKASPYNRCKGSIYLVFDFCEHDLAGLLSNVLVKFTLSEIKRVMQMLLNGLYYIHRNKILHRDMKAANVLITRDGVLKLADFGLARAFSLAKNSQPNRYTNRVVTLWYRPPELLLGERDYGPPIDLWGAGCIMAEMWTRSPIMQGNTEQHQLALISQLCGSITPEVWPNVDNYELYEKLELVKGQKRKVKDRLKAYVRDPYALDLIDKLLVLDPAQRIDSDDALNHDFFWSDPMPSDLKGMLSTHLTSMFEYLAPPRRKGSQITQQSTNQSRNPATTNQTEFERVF

Row | SMILES | microsomal CLint [1] | IC50 (CDK9/cyclin T1) | IC50 [2] | IC50 [3] | microsomal CLint [4] | IC50 [5] | IC50 [6] | Drug metabolism (Hepatocyte) | Vd [7] | clearance [8] | MRT [9] | Ratio IC50 (Homo sapiens)
1 | Fc1ccc2c(-c3nnc(N[C@@H](c4cccnc4F)C4CC4)o3)c[nH]c2n1 | < 14 µL/min/mg | 2400 nM | > 50000 nM | 4000 nM | 413 µL/min/mg | 250 nM | 3.9 nM | – | – | – | – | –
2 | C[C@@H](Nc1nnc(-c2c[nH]c3ncccc23)o1)c1ccccc1 | 64 µL/min/mg | – | – | 310 nM | 25 µL/min/mg | 370 nM | 32 nM | Active | – | – | – | –
3 | CC(C)[C@@H](Nc1nnc(-c2c[nH]c3ncccc23)o1)c1ccccc1 | 66 µL/min/mg | – | – | 1200 nM | 51 µL/min/mg | 140 nM | 2 nM | – | – | – | – | –
4 | c1ccc(CNc2nnc(-c3ccc4cnccc4c3)o2)cc1 | 120 µL/min/mg | – | – | 350 nM | 166 µL/min/mg | 710 nM | 17 nM | – | 4.3 L/kg | 300 mL/min/kg | 12 min | –
5 | O=C1Cc2cc(-c3nnc(NCc4ccccc4)o3)ccc2N1 | < 14 µL/min/mg | – | – | 33000 nM | < 14 µL/min/mg | > 50000 nM | 770 nM | – | – | – | – | –
6 | C[C@H](Nc1nnc(-c2c[nH]c3ncccc23)o1)c1ccccc1 | 15 µL/min/mg | – | – | 98 nM | 17 µL/min/mg | 2600 nM | 35 nM | – | – | – | – | –
7 | CC[C@@H](Nc1nnc(-c2c[nH]c3ncccc23)o1)c1ccccc1 | 70 µL/min/mg | – | – | 1700 nM | 29 µL/min/mg | 150 nM | 4 nM | – | – | – | – | –
8 | CC(C)(Nc1nnc(-c2c[nH]c3ncccc23)o1)c1ccccc1 | 30 µL/min/mg | – | – | 7 nM | 35 µL/min/mg | 6200 nM | 120 nM | – | – | – | – | –
9 | Nc1n[nH]c2ccc(-c3nnc(NCc4ccccc4)o3)cc12 | 26 µL/min/mg | – | – | 230 nM | 74 µL/min/mg | 1200 nM | 11 nM | – | – | – | – | –

Results, then the compound that gave them:

Row | microsomal CLint [1] | IC50 (CDK9/cyclin T1) | IC50 [2] | IC50 [3] | microsomal CLint [4] | IC50 [5] | IC50 [6] | Drug metabolism (Hepatocyte) | Vd [7] | clearance [8] | MRT [9] | Ratio IC50 (Homo sapiens) | SMILES
10 | 49 µL/min/mg | – | – | 6800 nM | 56 µL/min/mg | 3200 nM | 10 nM | – | – | – | – | – | Fc1cc2cc(-c3nnc(NCc4ccccc4)o3)ccc2cn1
11 | 32 µL/min/mg | – | – | 580 nM | 46 µL/min/mg | 1600 nM | 35 nM | – | – | – | – | 17 | Fc1ccccc1CNc1nnc(-c2c[nH]c3ncccc23)o1
12 | < 14 µL/min/mg | – | – | 610 nM | 30 µL/min/mg | 7100 nM | 190 nM | – | – | – | – | – | c1cncc(CNc2nnc(-c3c[nH]c4ncccc34)o2)c1
13 | 54 µL/min/mg | – | – | 61 nM | 71 µL/min/mg | 580 nM | 10 nM | – | – | – | – | 6 | Fc1cccc(CNc2nnc(-c3c[nH]c4ncccc34)o2)c1

From ChEMBL document CHEMBL3091324, “The optimization of aminooxadiazoles as orally active inhibitors of Cdc7” (Bioorg Med Chem Lett, 2013)
